{"source": "paper PMC9562282", "about": "“Reaction of Thiosulfate Dehydrogenase with a Substrate Mimic Induces Dissociation of the Cysteine Heme Ligand Giving Insights into the Mechanism of Oxidative Catalysis” (Journal of the American Chemical Society, 2022)", "molecular_target": "T1, CjTsdA (Campylobacter jejuni thiosulfate dehydrogenase) (Campylobacter jejuni, UniProt A0A5Y8VWW6)", "T1 construct": "diheme c-type cytochrome (two covalent c hemes), mass 37,202 Da by LCMS with unmodified Cys138; host and tags only in supplement", "experiment": "LCMS of intact protein (supported by absorbance and MCD spectroscopy)", "type": "binding", "conditions": "covalent; cysteinyl-138 sulfonate adduct; 1.5 mM sulfite, anaerobic 50 mM HEPES, 50 mM NaCl, pH 7, 20 °C; ferricyanide as oxidant"}
{"smiles": "O=S(O)O", "note": "[sulfite]", "values": [{"measurement": "LCMS of intact protein (supported by absorbance and MCD spectroscopy)", "value": "sulfite is shown to bind to the active site of CjTsdA"}]}
